We go through eight compounds from ChEMBL document CHEMBL1909046, “DrugMatrix in vitro pharmacology data”.

Targets include Cytochrome P450 2C9 (Homo sapiens, UniProt P11712); Cytochrome P450 2C19 (Homo sapiens, UniProt P33261); Cytochrome P450 2D6 (Homo sapiens, UniProt P10635).
A further data set concerns the target T1, Estrogen receptor (Homo sapiens, UniProt P03372).
T1 sequence (P03372 whole entry): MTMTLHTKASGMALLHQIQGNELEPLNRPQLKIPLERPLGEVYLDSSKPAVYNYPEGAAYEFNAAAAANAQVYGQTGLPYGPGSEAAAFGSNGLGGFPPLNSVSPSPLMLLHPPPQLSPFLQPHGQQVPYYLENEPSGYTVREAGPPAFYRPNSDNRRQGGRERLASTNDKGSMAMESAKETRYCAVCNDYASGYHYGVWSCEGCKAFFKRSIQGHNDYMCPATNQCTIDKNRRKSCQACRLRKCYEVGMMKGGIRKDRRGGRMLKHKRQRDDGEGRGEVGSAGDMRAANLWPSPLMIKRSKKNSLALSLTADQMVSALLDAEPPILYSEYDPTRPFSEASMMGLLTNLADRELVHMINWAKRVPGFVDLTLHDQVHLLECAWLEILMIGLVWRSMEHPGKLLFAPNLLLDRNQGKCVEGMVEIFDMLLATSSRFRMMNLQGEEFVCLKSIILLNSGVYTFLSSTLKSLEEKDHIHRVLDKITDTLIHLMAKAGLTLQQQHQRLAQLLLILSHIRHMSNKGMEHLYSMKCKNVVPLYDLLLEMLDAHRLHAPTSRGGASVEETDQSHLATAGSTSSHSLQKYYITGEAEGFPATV
To be noted: sf9.

The next data set concerns the target Cytochrome P450 3A4 (Homo sapiens, UniProt P08684). Particulars: bti-tn-5b1-4.
Another data set has as its target T2, Glucocorticoid receptor (Homo sapiens, UniProt P04150).
T2 sequence (P04150 whole entry): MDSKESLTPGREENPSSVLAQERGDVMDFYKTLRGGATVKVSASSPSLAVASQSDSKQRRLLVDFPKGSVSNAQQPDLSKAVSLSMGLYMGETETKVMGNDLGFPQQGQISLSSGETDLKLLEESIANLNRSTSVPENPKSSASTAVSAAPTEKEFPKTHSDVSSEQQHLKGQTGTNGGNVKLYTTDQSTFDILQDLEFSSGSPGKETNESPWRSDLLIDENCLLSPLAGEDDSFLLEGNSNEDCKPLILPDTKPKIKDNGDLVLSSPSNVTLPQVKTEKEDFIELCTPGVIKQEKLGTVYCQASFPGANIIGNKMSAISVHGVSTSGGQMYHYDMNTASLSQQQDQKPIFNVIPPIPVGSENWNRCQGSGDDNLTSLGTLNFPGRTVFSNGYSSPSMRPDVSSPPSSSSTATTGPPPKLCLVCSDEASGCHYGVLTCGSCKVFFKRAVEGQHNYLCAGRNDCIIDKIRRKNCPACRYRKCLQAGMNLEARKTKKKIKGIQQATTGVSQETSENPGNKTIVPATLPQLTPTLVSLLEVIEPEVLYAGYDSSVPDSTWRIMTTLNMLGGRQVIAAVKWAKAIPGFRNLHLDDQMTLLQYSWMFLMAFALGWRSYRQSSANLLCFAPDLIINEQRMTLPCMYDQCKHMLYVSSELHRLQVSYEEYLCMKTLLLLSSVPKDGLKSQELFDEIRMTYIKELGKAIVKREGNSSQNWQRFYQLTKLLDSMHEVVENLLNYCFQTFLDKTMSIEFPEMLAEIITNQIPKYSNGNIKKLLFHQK
To be noted: hela s3.

The target in another data set is T3, Cytochrome P450 1A2 (Homo sapiens, UniProt P05177).
T3 sequence (P05177 whole entry): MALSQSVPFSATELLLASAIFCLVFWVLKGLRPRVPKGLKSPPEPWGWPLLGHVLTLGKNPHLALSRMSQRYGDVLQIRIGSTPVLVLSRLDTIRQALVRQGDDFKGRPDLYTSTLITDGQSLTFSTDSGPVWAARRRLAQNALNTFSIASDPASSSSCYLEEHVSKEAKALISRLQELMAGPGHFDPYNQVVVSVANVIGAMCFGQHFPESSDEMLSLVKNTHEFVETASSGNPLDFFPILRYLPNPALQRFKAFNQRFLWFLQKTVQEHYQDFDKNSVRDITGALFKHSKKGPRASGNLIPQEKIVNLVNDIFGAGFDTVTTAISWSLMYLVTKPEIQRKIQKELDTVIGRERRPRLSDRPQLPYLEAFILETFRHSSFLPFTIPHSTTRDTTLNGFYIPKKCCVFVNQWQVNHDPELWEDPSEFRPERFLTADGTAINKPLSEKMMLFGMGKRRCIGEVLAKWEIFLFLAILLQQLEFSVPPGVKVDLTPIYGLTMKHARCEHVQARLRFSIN

Another data set addresses T4, Androgen receptor (Rattus norvegicus, UniProt P15207).
T4 sequence (P15207 whole entry): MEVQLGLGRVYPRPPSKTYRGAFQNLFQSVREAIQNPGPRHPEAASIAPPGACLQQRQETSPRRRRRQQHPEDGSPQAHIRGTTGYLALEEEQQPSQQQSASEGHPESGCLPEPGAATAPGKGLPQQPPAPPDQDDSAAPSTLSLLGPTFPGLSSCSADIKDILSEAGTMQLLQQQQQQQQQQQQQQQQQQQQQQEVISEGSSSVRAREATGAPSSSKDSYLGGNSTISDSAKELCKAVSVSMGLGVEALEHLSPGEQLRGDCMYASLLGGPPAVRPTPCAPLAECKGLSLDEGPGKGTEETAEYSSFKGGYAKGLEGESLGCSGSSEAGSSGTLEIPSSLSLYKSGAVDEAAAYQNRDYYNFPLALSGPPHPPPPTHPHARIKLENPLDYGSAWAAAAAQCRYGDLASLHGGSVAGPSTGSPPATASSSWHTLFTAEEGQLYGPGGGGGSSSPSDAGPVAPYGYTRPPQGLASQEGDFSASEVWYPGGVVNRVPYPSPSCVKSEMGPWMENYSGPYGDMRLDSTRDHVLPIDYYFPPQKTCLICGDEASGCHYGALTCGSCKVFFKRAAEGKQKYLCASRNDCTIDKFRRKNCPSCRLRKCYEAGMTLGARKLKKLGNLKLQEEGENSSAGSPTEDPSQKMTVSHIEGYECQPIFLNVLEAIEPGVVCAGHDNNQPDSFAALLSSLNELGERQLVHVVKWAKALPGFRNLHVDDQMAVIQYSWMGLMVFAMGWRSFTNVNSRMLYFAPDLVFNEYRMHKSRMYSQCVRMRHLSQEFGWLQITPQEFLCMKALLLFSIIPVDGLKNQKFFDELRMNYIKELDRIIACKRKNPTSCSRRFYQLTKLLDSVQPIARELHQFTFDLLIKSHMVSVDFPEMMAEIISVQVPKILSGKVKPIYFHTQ

In general, IC50 refers to the concentration that gives 50% inhibition.
Also: in other assays of this panel Not Active means under 50% inhibition at 10 µM.

Cytochrome P450 2C19, sequence (P33261 whole entry): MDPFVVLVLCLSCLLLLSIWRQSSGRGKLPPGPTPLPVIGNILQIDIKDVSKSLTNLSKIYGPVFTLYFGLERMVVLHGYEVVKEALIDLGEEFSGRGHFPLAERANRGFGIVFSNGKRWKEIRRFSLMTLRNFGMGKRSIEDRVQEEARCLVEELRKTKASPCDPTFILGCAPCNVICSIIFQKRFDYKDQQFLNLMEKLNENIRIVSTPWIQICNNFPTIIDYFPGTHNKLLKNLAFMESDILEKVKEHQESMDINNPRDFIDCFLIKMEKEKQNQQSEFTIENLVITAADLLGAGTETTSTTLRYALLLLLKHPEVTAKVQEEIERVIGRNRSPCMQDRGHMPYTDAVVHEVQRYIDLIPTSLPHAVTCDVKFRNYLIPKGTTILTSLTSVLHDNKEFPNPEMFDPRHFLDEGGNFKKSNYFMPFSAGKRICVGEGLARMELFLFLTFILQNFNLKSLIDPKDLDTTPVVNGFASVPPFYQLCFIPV
Cytochrome P450 3A4, sequence (P08684 whole entry): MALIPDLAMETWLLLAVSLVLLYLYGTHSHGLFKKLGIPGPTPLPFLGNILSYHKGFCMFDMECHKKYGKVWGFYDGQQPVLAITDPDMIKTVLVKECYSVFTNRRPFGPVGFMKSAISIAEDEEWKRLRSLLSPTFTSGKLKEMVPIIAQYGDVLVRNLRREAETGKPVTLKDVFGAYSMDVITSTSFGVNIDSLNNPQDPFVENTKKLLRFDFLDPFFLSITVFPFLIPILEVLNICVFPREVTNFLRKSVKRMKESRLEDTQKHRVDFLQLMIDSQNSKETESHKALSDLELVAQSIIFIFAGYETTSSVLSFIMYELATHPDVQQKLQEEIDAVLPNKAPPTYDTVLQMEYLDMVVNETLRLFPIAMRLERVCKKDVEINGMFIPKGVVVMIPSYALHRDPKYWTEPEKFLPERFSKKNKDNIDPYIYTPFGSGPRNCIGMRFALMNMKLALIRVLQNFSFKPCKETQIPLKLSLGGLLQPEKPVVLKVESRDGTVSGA
Cytochrome P450 2D6, sequence (P10635 whole entry): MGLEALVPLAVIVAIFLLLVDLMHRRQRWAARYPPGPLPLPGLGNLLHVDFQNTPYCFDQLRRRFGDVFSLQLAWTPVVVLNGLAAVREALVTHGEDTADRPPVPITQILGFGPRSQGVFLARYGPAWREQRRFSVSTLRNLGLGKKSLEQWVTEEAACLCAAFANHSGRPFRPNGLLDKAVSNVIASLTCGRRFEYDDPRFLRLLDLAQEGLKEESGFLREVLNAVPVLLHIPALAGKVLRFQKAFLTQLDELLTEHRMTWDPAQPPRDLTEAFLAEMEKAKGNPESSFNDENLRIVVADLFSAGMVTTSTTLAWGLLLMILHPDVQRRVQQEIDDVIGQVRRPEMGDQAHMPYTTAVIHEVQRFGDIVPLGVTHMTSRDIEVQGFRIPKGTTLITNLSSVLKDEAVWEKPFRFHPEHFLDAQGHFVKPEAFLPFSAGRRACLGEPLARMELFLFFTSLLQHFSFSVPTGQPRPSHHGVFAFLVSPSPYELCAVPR
Cytochrome P450 2C9, sequence (P11712 whole entry): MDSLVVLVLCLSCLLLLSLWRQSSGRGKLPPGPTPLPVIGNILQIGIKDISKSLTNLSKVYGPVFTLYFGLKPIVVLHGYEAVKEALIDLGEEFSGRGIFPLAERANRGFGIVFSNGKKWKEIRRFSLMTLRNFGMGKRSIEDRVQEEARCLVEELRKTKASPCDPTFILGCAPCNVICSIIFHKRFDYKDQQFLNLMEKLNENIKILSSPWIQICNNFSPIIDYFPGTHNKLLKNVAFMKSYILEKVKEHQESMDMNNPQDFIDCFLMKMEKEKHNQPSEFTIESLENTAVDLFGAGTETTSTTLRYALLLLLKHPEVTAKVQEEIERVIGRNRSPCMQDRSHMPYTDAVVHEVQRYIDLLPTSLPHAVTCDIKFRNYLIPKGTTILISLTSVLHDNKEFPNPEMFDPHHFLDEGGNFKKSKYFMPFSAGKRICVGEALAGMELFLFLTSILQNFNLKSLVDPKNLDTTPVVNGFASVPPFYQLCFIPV

With `Clc1ccccc1C(c1ccccc1)(c1ccccc1)n1ccnc1` [CLOTRIMAZOLE], the half-maximal inhibitory concentration (IC50) entry at Estrogen receptor was “Not Active”; at Cytochrome P450 2C9, 0.016 µM; on Cytochrome P450 2C19, 0.016 µM.

As to `CC(CCc1ccccc1)NCC(O)c1ccc(O)c(C(N)=O)c1` (stereo not given) [LABETALOL], the 50% inhibitory concentration (IC50) entry at Estrogen receptor was “Not Active”; on Cytochrome P450 3A4, “Not Active”; at Glucocorticoid receptor, “Not Active”; against Cytochrome P450 2D6, 0.8 µM. For the same compound, the Ki entry on Cytochrome P450 3A4 is “Not Active”.

As to `NNc1ccccc1` [PHENYLHYDRAZINE], the IC50 at Cytochrome P450 2C9 was 6 µM; against Cytochrome P450 2D6, 3 µM; against Cytochrome P450 2C19 it was 5 µM; at Cytochrome P450 1A2 it was 8 µM.

Turning to `CC(=O)S[C@@H]1CC2=CC(=O)CC[C@]2(C)[C@H]2CC[C@@]3(C)[C@@H](CC[C@@]34CCC(=O)O4)[C@H]12` [SPIRONOLACTONE], the IC50 entry against Estrogen receptor is “Not Active”; against Cytochrome P450 3A4 it was “Not Active”; against Cytochrome P450 2C19 it was 3 µM. Moreover, at Cytochrome P450 3A4, the Ki result is given as “Not Active”.

As for `C[C@]12Cc3c[nH]nc3C[C@@H]1CC[C@@H]1[C@@H]2CC[C@@]2(C)[C@H]1CC[C@]2(C)O` [STANOZOLOL], the IC50 against Cytochrome P450 2C9 was 1.13 µM; at Cytochrome P450 3A4, “Not Active”; on Glucocorticoid receptor it was “Not Active”; on Cytochrome P450 2D6, 9.27 µM; against Cytochrome P450 2C19 it was 0.048 µM. For the same compound, the Ki entry at Cytochrome P450 3A4 is listed as “Not Active”.

Consider `c1ccc2[nH]c(-c3cscn3)nc2c1` [THIABENDAZOLE], for which the IC50 entry was “Not Active” on Estrogen receptor, “Not Active” against Glucocorticoid receptor, “Not Active” on Androgen receptor and 0.8 µM on Cytochrome P450 1A2.

For `CSc1ccc2c(c1)N(CCC1CCCCN1C)c1ccccc1S2` (stereo not given) [THIORIDAZINE], the IC50 result against Estrogen receptor is “Not Active”; on Cytochrome P450 3A4, “Not Active”; against Glucocorticoid receptor, “Not Active”; against Cytochrome P450 2C19 it was 6.38 µM; on Cytochrome P450 1A2 it was 9.33 µM. In addition, the Ki result at Cytochrome P450 3A4 is recorded as “Not Active”.

For IVERMECTIN, the IC50 entry against Estrogen receptor, at Cytochrome P450 3A4, at Glucocorticoid receptor and against Androgen receptor was “Not Active” in each case. In addition, the Ki result at Estrogen receptor, at Cytochrome P450 3A4, at Glucocorticoid receptor and at Androgen receptor was “Not Active” throughout.
